Test results reported in patent US9844533B2, “Antioxidant-containing food composition for use in inhibiting histamine pathways in companion animals” (Hill's Pet Nutrition, Inc., priority 2008, dated 2017).

Legend:
Type in all cases: cell-based
[1] = system: GAB2 (GRB2-associated-binding protein 2); assay: Gene expression in four cat cell lines treated with or without lipoic acid (paired t test, GeneGo enrichment); conditions: Table 4; four cat cell lines with vs without lipoic acid; p<0.05
Method: (§1) The gene expression data from four cat cell lines treated with lipoic acid was analyzed.

[2] = system: ADCY2 (Adenylate cyclase type 2); assay: Gene expression in four cat cell lines treated with or without lipoic acid; conditions: Table 5; four cat cell lines with vs without lipoic acid; p<0.05
Method: as §1

[3] = system: ADCY7 (Adenylate cyclase type 7); assay: as above; conditions: Table 5; four cat cell lines with vs without lipoic acid; p<0.05
Method: as §1

[4] = system: LTC4S (Leukotriene C4 synthase); assay: as above; conditions: Table 4; four cat cell lines with vs without lipoic acid; p<0.05
Method: as §1

[5] = system: MAP2K1 (Dual specificity mitogen-activated protein kinase 1); assay: as above; conditions: Table 4; four cat cell lines with vs without lipoic acid; p<0.05
Method: as §1

[6] = system: MAPK1 (Mitogen-activated protein kinase 1); assay: as above; conditions: four cat cell lines with vs without lipoic acid, p<0.05
Method: as §1

[7] = system: NOS3 (Nitric oxide synthase, endothelial); assay: as above; conditions: Table 5; four cat cell lines with vs without lipoic acid; p<0.05
Method: as §1

[8] = system: PLA2G2F (Group IIFA2 secretory phospholipase precursor); assay: as above; conditions: Table 5; four cat cell lines with vs without lipoic acid; p<0.05
Method: as §1

[9] = system: PNPLA8 (Calcium-independent phospholipase A2-gamma); assay: as above; conditions: Table 5; four cat cell lines with vs without lipoic acid; p<0.05
Method: as §1

[10] = system: PRKAR1A (cAMP-dependent protein kinase type I-alpha regulatory subunit); assay: as above; conditions: Table 5; four cat cell lines with vs without lipoic acid; p<0.05
Method: as §1

[11] = system: REL (C-Rel proto-oncogene protein); assay: as above; conditions: Table 5; four cat cell lines with vs without lipoic acid; p<0.05
Method: as §1

[12] = system: RELA (Transcription factor p65); assay: as above; conditions: Table 5; four cat cell lines with vs without lipoic acid; p<0.05
Method: as §1

[13] = system: TNF (Tumor necrosis factor precursor); assay: as above; conditions: Table 5; four cat cell lines with vs without lipoic acid; p<0.05
Method: as §1

[14] = system: VCAM1 (Vascular cell adhesion protein 1 precursor); assay: as above; conditions: Table 5; four cat cell lines with vs without lipoic acid; p<0.05
Method: as §1

[15] = system: histamine release and signaling pathways (gene networks); assay: Gene network enrichment analysis of cat cell lines treated with lipoic acid; conditions: four cat cell lines treated with lipoic acid
Method: as §1

## O=C(O)CCCCC1CCSS1 (stereo not drawn) [lipoic acid, alpha-lipoic acid]
[1]
  Signal (GAB2 gene expression change): −0.8668
[2]
  Signal (ADCY2 gene expression change): 0.3925
[3]
  Signal (ADCY7 gene expression change): 0.3988
[4]
  Signal (LTC4S gene expression change): −0.4586
[5]
  Signal (MAP2K1 gene expression change): −0.1574
[6]; Table 4
  Signal (MAPK1 gene expression change): −0.3117
[6]; Table 5
  Signal (MAPK1 gene expression change): −0.3117
[7]
  Signal (NOS3 gene expression change): −0.5503
[8]
  Signal (PLA2G2F gene expression change): 1.061
[9]
  Signal (PNPLA8 gene expression change): −0.2652
[10]
  Signal (PRKAR1A gene expression change): −0.184
[11]
  Signal (REL gene expression change): −0.4264
[12]
  Signal (RELA gene expression change): −0.429
[13]
  Signal (TNF gene expression change): 0.1797
[14]
  Signal (VCAM1 gene expression change): −0.7819|
[15]
  Regulation of key genes in histamine and IgE signaling networks: down regulated
